According to patent US4548925A, “Antibiotic M43A, pharmaceutical composition and method of use” (Eli Lilly and Company, priority 1984, dated 1985):
≈ marks a conversion by molar mass, not a printed value.

Columns and labels:
Streptococcus pyogenes = experiment: Experimental bacterial infection in mice, ED50; assay type: in vivo; conditions: subcutaneous, two doses, dose protecting 50% of animals
Escherichia coli TEM = experiment: In vitro MIC, standard agar-dilution assay; assay type: cell-based; conditions: M43A phosphate salt, vancomycin free base
[1] = test system: Streptococcus sp. group D 9960; conditions: agar dilution, M43A phosphate salt, vancomycin free base
[2] = test system: Clostridium difficile 2994; experiment: Susceptibility of anaerobic isolates, agar-dilution MIC; assay type: cell-based; conditions: read after 24 hrs incubation
Protocol: (§1) . | ^a MIC's were determined by the agardilution method; endpoints were
(§2) read after 24hrs. incubation.

[3] = test system: Bacteroides vulgatis 1211; experiment: as above; assay type: cell-based; conditions: read after 24 hrs incubation
Protocol: as §1, §2

[4] = test system: Bacteroides corrodens 1874; experiment: as above; assay type: cell-based; conditions: read after 24 hrs incubation
Protocol: as §1, §2

[5] = test system: Bacteroides thetaiotaomicron 1438; experiment: as above; assay type: cell-based; conditions: read after 24 hrs incubation
Protocol: as §1, §2

[6] = test system: Bacteroides melaninogenicus 1856/28; experiment: as above; assay type: cell-based; conditions: read after 24 hrs incubation
Protocol: as §1, §2

[7] = test system: Peptococcus asaccharolyticus 1302; experiment: as above; assay type: cell-based; conditions: read after 24 hrs incubation
Protocol: as §1, §2

[8] = test system: Fusobacterium symbiosum 1470; experiment: as above; assay type: cell-based; conditions: read after 24 hrs incubation
Protocol: as §1, §2

[9] = test system: Peptostreptococcus intermedius 1264; experiment: as above; assay type: cell-based; conditions: read after 24 hrs incubation
Protocol: as §1, §2

[10] = test system: Peptostreptococcus anaerobius 1428; experiment: as above; assay type: cell-based; conditions: read after 24 hrs incubation
Protocol: as §1, §2

Bacteroides fragilis 111 = experiment: as above; assay type: cell-based; conditions: read after 24 hrs incubation
Protocol: as §1, §2

[11] = test system: Clostridium septicum 1128; experiment: as above; assay type: cell-based; conditions: read after 24 hrs incubation
Protocol: as §1, §2

[12] = test system: Propionibacterium acnes 79; experiment: as above; assay type: cell-based; conditions: read after 24 hrs incubation
Protocol: as §1, §2

[13] = test system: Bacteroides fragilis 1877; experiment: as above; assay type: cell-based; conditions: read after 24 hrs incubation
Protocol: as §1, §2

[14] = test system: Bacteroides fragilis 1936B; experiment: as above; assay type: cell-based; conditions: read after 24 hrs incubation
Protocol: as §1, §2

[15] = test system: Fusobacterium necrophorum 6054A; experiment: as above; assay type: cell-based; conditions: read after 24 hrs incubation
Protocol: as §1, §2

Peptococcus prevoti 1281 = experiment: as above; assay type: cell-based; conditions: read after 24 hrs incubation
Protocol: as §1, §2

[16] = test system: Eubacterium aerofaciens 1235; experiment: as above; assay type: cell-based; conditions: read after 24 hrs incubation
Protocol: as §1, §2

[17] = test system: Bacteroides melaninogenicus 2736; experiment: as above; assay type: cell-based; conditions: read after 24 hrs incubation
Protocol: as §1, §2

[18] = test system: Klebsiella pneumoniae X26; experiment: In vitro MIC, standard agar-dilution assay; assay type: cell-based; conditions: M43A phosphate salt, vancomycin free base
[19] = test system: Haemophilus influenzae 76; experiment: In vitro MIC, standard agar-dilution assay; assay type: cell-based; conditions: M43A phosphate salt, vancomycin free base
[20] = test system: Clostridium perfringens 81; assay type: cell-based; conditions: agar dilution, read after 24 hrs incubation
[21] = test system: Streptococcus pyogenes C203; experiment: In vitro MIC, standard agar-dilution assay; assay type: cell-based; conditions: M43A phosphate salt, vancomycin free base
[22] = test system: Streptococcus faecium ATCC 9790; conditions: agar dilution, M43A phosphate salt, vancomycin free base
Escherichia coli EC14 = experiment: In vitro MIC, standard agar-dilution assay; assay type: cell-based; conditions: M43A phosphate salt, vancomycin free base
[23] = test system: Staphylococcus aureus X400; experiment: In vitro MIC, standard agar-dilution assay; assay type: cell-based; conditions: M43A phosphate salt, vancomycin free base
[24] = test system: Haemophilus influenzae C.L.; experiment: In vitro MIC, standard agar-dilution assay; assay type: cell-based; conditions: M43A phosphate salt, vancomycin free base
[25] = test system: Klebsiella pneumoniae KAE; experiment: In vitro MIC, standard agar-dilution assay; assay type: cell-based; conditions: M43A phosphate salt, vancomycin free base
Escherichia coli N10 = experiment: In vitro MIC, standard agar-dilution assay; assay type: cell-based; conditions: M43A phosphate salt, vancomycin free base
[26] = test system: Klebsiella pneumoniae X68; experiment: In vitro MIC, standard agar-dilution assay; assay type: cell-based; conditions: M43A phosphate salt, vancomycin free base
[27] = test system: Staphylococcus aureus V41; experiment: In vitro MIC, standard agar-dilution assay; assay type: cell-based; conditions: M43A phosphate salt, vancomycin free base
[28] = test system: Staphylococcus aureus NRRL B313; experiment: In vitro MIC, standard agar-dilution assay; assay type: cell-based; conditions: M43A phosphate salt, vancomycin free base
Staphylococcus aureus = experiment: Experimental bacterial infection in mice, ED50; assay type: in vivo; conditions: subcutaneous, two doses, dose protecting 50% of animals
Streptococcus pneumoniae = experiment: Experimental bacterial infection in mice, ED50; assay type: in vivo; conditions: subcutaneous, two doses, dose protecting 50% of animals

Compound: CN[C@H](CC(C)C)C(=O)N[C@H]1C(=O)N[C@@H](CC(N)=O)C(=O)N[C@H]2C(=O)N[C@H]3C(=O)N[C@H](C(=O)N[C@H](C(=O)O)c4cc(O)cc(O)c4-c4cc3ccc4O)[C@H](O)c3ccc(c(Cl)c3)Oc3cc2cc(c3O[C@@H]2O[C@H](CO)[C@@H](O)[C@H](O)[C@H]2O[C@H]2C[C@](C)(N)[C@H](O)[C@H](C)O2)Oc2ccc(cc2Cl)[C@H]1O [Vancomycin]
- E50 (Streptococcus pyogenes): 1.2 mg/kg/2
- MIC (Escherichia coli TEM): > 128 µg/mL
- MIC [1]: 4 µg/mL
- MIC [2]: 2 µg/mL (≈ 1.38 µM)
- MIC [3]: 16 µg/mL (≈ 11 µM)
- MIC [4]: 32 µg/mL (≈ 22.1 µM)
- MIC [5]: 16 µg/mL (≈ 11 µM)
- MIC [6]: > 128 µg/mL
- MIC [7]: 2 µg/mL (≈ 1.38 µM)
- MIC [8]: 2 µg/mL (≈ 1.38 µM)
- MIC [9]: 4 µg/mL (≈ 2.76 µM)
- MIC [10]: 2 µg/mL (≈ 1.38 µM)
- MIC (Bacteroides fragilis 111): 64 µg/mL (≈ 44.2 µM)
- MIC [11]: 4 µg/mL (≈ 2.76 µM)
- MIC [12]: 2 µg/mL (≈ 1.38 µM)
- MIC [13]: 32 µg/mL (≈ 22.1 µM)
- MIC [14]: 32 µg/mL (≈ 22.1 µM)
- MIC [15]: 2 µg/mL (≈ 1.38 µM)
- MIC (Peptococcus prevoti 1281): 2 µg/mL (≈ 1.38 µM)
- MIC [16]: 16 µg/mL (≈ 11 µM)
- MIC [17]: 8 µg/mL (≈ 5.52 µM)
- MIC [18]: > 128 µg/mL
- MIC [19]: 32 µg/mL
- MIC [20]: 1 µg/mL (≈ 0.69 µM)
- MIC [21]: 1 µg/mL
- MIC [22]: 1 µg/mL
- MIC (Escherichia coli EC14): > 128 µg/mL
- MIC [23]: 1 µg/mL
- MIC [24]: 128 µg/mL
- MIC [25]: > 128 µg/mL
- MIC (Escherichia coli N10): > 128 µg/mL
- MIC [26]: > 128 µg/mL
- MIC [27]: 1 µg/mL
- MIC [28]: 1 µg/mL
- E50 (Staphylococcus aureus): 1.62 mg/kg/2
- E50 (Streptococcus pneumoniae): 1.47 mg/kg/2
